Results as given in publication PMC11740271 (Annals of neurology, 2024).
Several values for one entry are separate records, joined by “and”; a condition that tells them apart may be missing. Equal entries are not always repeated. Where two headings read alike, the source gives them in different places.

Columns and labels:
EAAT1 = conditions: cited from earlier work
GLT-1 [1] = assay: GLT-1 expression in mouse hippocampus; assay type: in vivo; conditions: C57BL/6J mice
GLT-1 [2] = assay: GLT-1 expression in neuron-glia cultures; assay type: cell-based, rat; conditions: 14 DIV neuron-glia cultures, 72 h
[3] = tested on: motor function and coordination; assay: Rotarod test in mice; assay type: in vivo; conditions: male mice (C57BL/6J), i.p., PT 0.5 h; 95% CI in parentheses
corneal kindled seizures [4] = assay: Corneal kindled mouse model; assay type: in vivo, mice; conditions: ip, read-out: ED50, CKM
[5] = tested on: autonomic, neuromuscular, sensorimotor and behavioral functions; assay: Modified Irwin test in rats; assay type: in vivo; conditions: male rats, i.p.
[6] = tested on: hippocampal paroxysmal discharges (HPDs); assay: Intra-hippocampal kainate mouse; assay type: in vivo; conditions: male mice, 50 mg/kg i.p., 1 h post-drug, mean ± SEM
Minimal motor impairment = assay type: in vivo, rats; conditions: Sprague-Dawley, rat, in vivo, ip
[7] = tested on: minimal motor impairment (ataxia); assay: Minimal motor impairment; assay type: in vivo, rats; conditions: i.p.
EAAT3 = conditions: cited from earlier work
GLT-1 [8] = assay: GLT-1 expression in mouse cortex; assay type: in vivo; conditions: C57BL/6 mice
6 Hz (44 mA) seizures [9] = assay: 6 Hz; assay type: in vivo, mice; conditions: Mus musculus, ip, 1 h, read-out: ED50, 6 Hz (44 mA)
TMEV-induced seizures = conditions: mice; doses as in Table S14; cited from earlier work
corneal kindled seizures [10] = conditions: mice, i.p.; from literature ED50/TD50, ref as in Table S11; cited from earlier work
6 Hz (44 mA) seizures [11] = conditions: mice, i.p.; from literature ED50/TD50, ref as in Table S11; cited from earlier work

C[C@H](C(=O)NCc1ccccc1)N1C(=O)CCC1=O [(R)-AS-1, (R)-N-benzyl-2-(2,5-dioxopyrrolidin-1-yl)propanamide]
interaction with EAAT1 (EAAT1): does not interact | GLT-1 expression in the hippocampus (qualitative confocal microscopy) (GLT-1 [1]; 100 mg/kg i.p. BID for 7 days): did not alter | GLT-1 protein expression (Western blotting) (GLT-1 [2]; 100 nM and 100 μM): did not alter | TD50, rotarod test [3]: 168.2 (117.4–242.0) mg/kg | ED50 (corneal kindled seizures [4]; 1 h): 38.2 mg/kg | ED50 (corneal kindled seizures [4]; […]): 40.5 mg/kg | adverse events at later time points (Irwin test) ([5]; 300 mg/kg, 2, 4, and 24 h): no adverse events | staggering, share of rats (Irwin test) ([5]; 300 mg/kg, 0.5 h, 1/4): 25% | ataxia, share of rats (Irwin test) ([5]; 300 mg/kg, 0.5 h, 2/4): 50% | ataxia, share of rats (Irwin test) ([5]; 300 mg/kg, 1 h, 1/4): 25% | staggering, share of rats (Irwin test) ([5]; 300 mg/kg, 1 h, 2/4): 50% | anesthesia, share of rats (Irwin test) ([5]; 300 mg/kg, […], 2 rats out of 4): 50% | tolerability in the Irwin test ([5]; doses of 100, 150, and 250 mg/kg, all time points): very well tolerated | HPD count as percent of baseline (peak effect) [6]: 52.81 ± 13.45% and ~ 50% | TD50 at […] (Minimal motor impairment; female): > 500 mg/kg | TD50 at 0.5 h (Minimal motor impairment; male): 254 mg/kg | N/F with adverse effects, TOX (MMI) ([7]; female rats, 500 mg/kg, […]): 2/8 | abnormal gait, animals affected / tested ([7]; female rats, 500 mg/kg, […]): 3/8 | tremors, animals affected / tested ([7]; female rats, 500 mg/kg, […]): 6/8 | slight ataxia, share of rats ([7]; female rats, 500 mg/kg, at 0.5 h and 1 h): 12.5% | N/F with adverse effects, TOX (MMI) ([7]; male rats, 300 mg/kg, 1 h): 1/8 | N/F with adverse effects, TOX (MMI) ([7]; male rats, 300 mg/kg, […]): 1/8 | interaction with EAAT3 (EAAT3): does not interact | GLT-1 protein expression in brain lysates (quantitative Western blot) (GLT-1 [8]; 100 mg/kg i.p. BID for 7 days): did not show any alteration | ED50 (6 Hz (44 mA) seizures [9]): 65.9 mg/kg

C=C(C)[C@@H]1CCC(C)=C[C@H]1c1c(O)cc(CCCCC)cc1O [Cannabidiol]
effect in the TMEV model (TMEV-induced seizures): effectively reduced TMEV-induced seizures

NC(=O)N1c2ccccc2C=Cc2ccccc21 [Carbamazepine]
effect in the TMEV model (TMEV-induced seizures): ineffective

CCOC(=O)Nc1ccc(NCc2ccc(F)cc2)cc1N [Ezogabine]
PI, CKM (reference ASMs) (corneal kindled seizures [10]): 1.5

COC[C@@H](NC(C)=O)C(=O)NCc1ccccc1 [Lacosamide]
effect in the TMEV model (TMEV-induced seizures): significantly reduced seizure burden

Nc1nnc(-c2cccc(Cl)c2Cl)c(N)n1 [Lamotrigine]
effect in the TMEV model (TMEV-induced seizures): ineffective | PI, CKM (reference ASMs) (corneal kindled seizures [10]): 1.0

CC[C@@H](C(N)=O)N1CCCC1=O [Levetiracetam]
effect in the TMEV model (TMEV-induced seizures): significantly reduced seizure burden

Cc1ccsc1C(=CCCN1CCC[C@@H](C(=O)O)C1)c1sccc1C [Tiagabine]
effect in the TMEV model (TMEV-induced seizures): significantly reduced seizure burden | PI, 6 Hz, 44 mA (reference ASMs) (6 Hz (44 mA) seizures [11]): 6

CCCC(CCC)C(=O)O [Valproate]
effect in the TMEV model (TMEV-induced seizures): significantly reduced seizure burden

CN(C)CCC=C1c2ccccc2CCc2ccccc21 [amitriptyline, reference compound]
GLT-1 signal in the hippocampus (qualitative confocal microscopy) (GLT-1 [1]; 10 mg/kg i.p. QD for 7 days): strong increase | GLT-1 protein expression in brain lysates (quantitative Western blot) (GLT-1 [8]; 10 mg/kg i.p. for 7 days, P < 0.05): significant increase

CO/N=C(\C(=O)N[C@@H]1C(=O)N2C(C(=O)O)=C(CSc3nc(=O)c(=O)[nH]n3C)CS[C@H]12)c1csc(N)n1 [ceftriaxone, reference compound]
GLT-1 protein expression (Western blotting) (GLT-1 [2]; 1 mM): significantly increased
